According to paper PMC11637875, “Discovery of novel PARP1/NRP1 dual-targeting inhibitors with strong antitumor potency” (Frontiers in Pharmacology, 2024):

How the values were obtained:
[1] = target: ABL2 (Homo sapiens, UniProt P42684); experiment: Selectivity profile (123 kinase panel); format: biochemical
[2] = target: AKT3 (Homo sapiens, UniProt Q9Y243); experiment: Selectivity profile (123 kinase panel); format: biochemical
[3] = target: BLK (Homo sapiens, UniProt P51451); experiment: Selectivity profile (123 kinase panel); format: biochemical
[4] = target: BRSK1 (Homo sapiens, UniProt Q8TDC3); experiment: Selectivity profile (123 kinase panel); format: biochemical
[5] = target: CaMK2α (Homo sapiens, UniProt Q9UQM7); experiment: Selectivity profile (123 kinase panel); format: biochemical
[6] = target: CLK1 (Homo sapiens, UniProt P49759); experiment: Selectivity profile (123 kinase panel); format: biochemical
[7] = target: CHK1 (Homo sapiens, UniProt O14757); experiment: Selectivity profile (123 kinase panel); format: biochemical
[8] = target: DAPK1 (Homo sapiens, UniProt P53355); experiment: Selectivity profile (123 kinase panel); format: biochemical
[9] = target: DYRK1A (Homo sapiens, UniProt Q13627); experiment: Selectivity profile (123 kinase panel); format: biochemical
[10] = target: EPHA5 (Homo sapiens, UniProt P54756); experiment: Selectivity profile (123 kinase panel); format: biochemical
[11] = target: FGR (Homo sapiens, UniProt P09769); experiment: Selectivity profile (123 kinase panel); format: biochemical
[12] = target: HIPK3 (Homo sapiens, UniProt Q9H422); experiment: Selectivity profile (123 kinase panel); format: biochemical
[13] = target: JNK3 (Homo sapiens, UniProt P53779); experiment: Selectivity profile (123 kinase panel); format: biochemical
[14] = target: LOK (Homo sapiens, UniProt O94804); experiment: Selectivity profile (123 kinase panel); format: biochemical
[15] = target: MARK1 (Homo sapiens, UniProt Q9P0L2); experiment: Selectivity profile (123 kinase panel); format: biochemical
[16] = target: MET (Homo sapiens, UniProt P08581); experiment: Selectivity profile (123 kinase panel); format: biochemical
[17] = target: MLK3 (Homo sapiens, UniProt Q16584); experiment: Selectivity profile (123 kinase panel); format: biochemical
[18] = target: MRCKβ (Homo sapiens, UniProt Q9Y5S2); experiment: Selectivity profile (123 kinase panel); format: biochemical
[19] = target: MSK1 (Homo sapiens, UniProt O75582); experiment: Selectivity profile (123 kinase panel); format: biochemical
[20] = target: PARP2 (Homo sapiens, UniProt Q9UGN5); experiment: Selectivity profile (other isoforms of PARP and NRP family); format: biochemical
[21] = target: PARP3 (Homo sapiens, UniProt Q9Y6F1); experiment: as above; format: biochemical
[22] = target: PARP9 (Homo sapiens, UniProt Q8IXQ6); experiment: as above; format: biochemical
[23] = target: PARP10 (Homo sapiens, UniProt Q53GL7); experiment: as above; format: biochemical
[24] = test system: FHC; experiment: Cytotoxicity on normal human cells (MTT); format: cell-based
Experimental: (§1) Cell viability was measured by MTT assays. MDA-MB-231, MCF-10A, L02, FHC, PNT1A, HEL-299, and HEK-293 cell lines were seeded in 96-well plates at 5 ×10^4 cells/well and incubated overnight. Different concentrations of PPNR1-5 or positive control were then added to each well and cultured at 37°C for 72 h. Afterward, the medium was removed. MTT (5 mg/mL) was dissolved in phosphate-buffered saline (PBS) and filter-sterilized, and then, 20 μL of the prepared MTT solution was added to each well, and the cells were incubated for another 4 h until a purple precipitate was visible. The supernatant was removed by centrifugation, and DMSO (150 μL/well) was added to dissolve the insoluble crystals. The absorbance was determined using an enzyme-linked immunosorbent assay reader at a test wavelength of 570 nm. The assays were performed three times in a parallel manner. The non-linear regression was used to plot a Dose-Response-Inhibition to determine the value of the IC50. The cell inhibition rate was calculated at 2 μM concentration of compound treatment. The data were analyzed using GraphPad Prism 9 software.

[25] = test system: HEK-293; experiment: Cytotoxicity on normal human cells (MTT); format: cell-based; conditions: HEK293, HEK-293 normal human cells
Experimental: as §1

[26] = test system: HEL-299; experiment: Cytotoxicity on normal human cells (MTT); format: cell-based; conditions: HEL-299 normal human cells
Experimental: as §1

[27] = test system: L02; experiment: Cytotoxicity on normal human cells (MTT); format: cell-based
Experimental: as §1

[28] = test system: MCF-10A; experiment: Cytotoxicity on normal human cells (MTT); format: cell-based; conditions: MCF-10A normal human mammary epithelial cells
Experimental: as §1

[29] = test system: PNT1A; experiment: Cytotoxicity on normal human cells (MTT); format: cell-based
Experimental: as §1

Measured: IC50

Chain of JNK3 (P53779 whole entry): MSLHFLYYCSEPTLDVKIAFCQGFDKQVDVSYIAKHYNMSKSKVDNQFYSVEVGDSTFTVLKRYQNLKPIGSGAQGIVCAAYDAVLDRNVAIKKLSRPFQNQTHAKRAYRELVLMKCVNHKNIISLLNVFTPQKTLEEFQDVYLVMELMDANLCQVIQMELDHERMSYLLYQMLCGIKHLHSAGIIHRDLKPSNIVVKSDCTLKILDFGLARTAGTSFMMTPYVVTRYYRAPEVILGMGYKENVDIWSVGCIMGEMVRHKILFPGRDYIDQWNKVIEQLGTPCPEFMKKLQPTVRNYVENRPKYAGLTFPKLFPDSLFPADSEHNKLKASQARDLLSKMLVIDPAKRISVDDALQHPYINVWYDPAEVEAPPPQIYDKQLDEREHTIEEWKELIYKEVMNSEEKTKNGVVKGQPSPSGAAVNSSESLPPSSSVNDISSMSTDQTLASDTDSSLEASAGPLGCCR
Chain of CaMK2α (Q9UQM7 whole entry): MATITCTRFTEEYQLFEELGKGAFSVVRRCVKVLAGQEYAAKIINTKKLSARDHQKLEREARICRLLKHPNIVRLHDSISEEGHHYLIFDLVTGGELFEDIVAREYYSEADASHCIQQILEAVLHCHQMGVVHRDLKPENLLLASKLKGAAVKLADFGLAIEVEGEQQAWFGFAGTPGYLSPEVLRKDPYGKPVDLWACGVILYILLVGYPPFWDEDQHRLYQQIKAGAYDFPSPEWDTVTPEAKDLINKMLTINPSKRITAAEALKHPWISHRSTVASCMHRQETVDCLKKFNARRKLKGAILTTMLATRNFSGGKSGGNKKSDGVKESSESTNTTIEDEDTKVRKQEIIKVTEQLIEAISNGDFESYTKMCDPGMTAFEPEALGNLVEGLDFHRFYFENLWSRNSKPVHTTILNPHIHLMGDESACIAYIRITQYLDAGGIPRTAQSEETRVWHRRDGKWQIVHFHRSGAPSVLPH
Chain of MET (P08581 25-1390): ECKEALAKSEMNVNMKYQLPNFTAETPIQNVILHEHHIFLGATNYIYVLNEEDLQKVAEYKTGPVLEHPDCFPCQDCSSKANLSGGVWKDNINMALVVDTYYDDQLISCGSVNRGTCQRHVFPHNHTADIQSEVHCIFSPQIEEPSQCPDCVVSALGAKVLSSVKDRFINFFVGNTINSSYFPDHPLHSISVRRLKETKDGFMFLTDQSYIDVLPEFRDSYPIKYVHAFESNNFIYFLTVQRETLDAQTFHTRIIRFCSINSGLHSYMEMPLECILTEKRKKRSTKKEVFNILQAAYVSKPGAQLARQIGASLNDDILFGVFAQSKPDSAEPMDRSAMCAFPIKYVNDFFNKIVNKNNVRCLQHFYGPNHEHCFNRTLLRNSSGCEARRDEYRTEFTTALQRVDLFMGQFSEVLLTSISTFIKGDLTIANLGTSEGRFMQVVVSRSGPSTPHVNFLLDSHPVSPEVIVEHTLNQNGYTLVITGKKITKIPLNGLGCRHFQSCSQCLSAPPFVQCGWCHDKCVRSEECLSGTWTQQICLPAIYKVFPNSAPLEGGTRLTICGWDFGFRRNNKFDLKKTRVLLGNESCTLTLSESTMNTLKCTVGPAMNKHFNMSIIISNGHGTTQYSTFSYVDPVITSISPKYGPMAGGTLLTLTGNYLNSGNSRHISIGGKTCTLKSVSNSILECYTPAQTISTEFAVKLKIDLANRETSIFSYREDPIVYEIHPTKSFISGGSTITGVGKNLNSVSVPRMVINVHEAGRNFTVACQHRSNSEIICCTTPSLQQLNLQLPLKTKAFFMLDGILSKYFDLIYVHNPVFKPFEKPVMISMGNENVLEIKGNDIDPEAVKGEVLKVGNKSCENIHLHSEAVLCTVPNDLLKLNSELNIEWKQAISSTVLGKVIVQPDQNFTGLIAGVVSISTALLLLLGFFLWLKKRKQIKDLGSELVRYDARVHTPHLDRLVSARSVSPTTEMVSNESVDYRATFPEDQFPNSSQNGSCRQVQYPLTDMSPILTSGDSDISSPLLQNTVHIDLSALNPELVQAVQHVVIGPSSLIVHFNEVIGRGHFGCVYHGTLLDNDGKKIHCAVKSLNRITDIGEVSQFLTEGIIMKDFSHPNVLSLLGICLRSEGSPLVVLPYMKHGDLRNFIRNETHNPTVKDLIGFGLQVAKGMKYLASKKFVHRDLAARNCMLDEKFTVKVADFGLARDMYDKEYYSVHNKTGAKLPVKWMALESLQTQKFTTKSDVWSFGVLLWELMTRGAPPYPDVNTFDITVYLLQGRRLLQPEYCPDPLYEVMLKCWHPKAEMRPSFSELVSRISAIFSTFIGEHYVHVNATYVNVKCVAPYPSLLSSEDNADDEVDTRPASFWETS
Chain of LOK (O94804 whole entry): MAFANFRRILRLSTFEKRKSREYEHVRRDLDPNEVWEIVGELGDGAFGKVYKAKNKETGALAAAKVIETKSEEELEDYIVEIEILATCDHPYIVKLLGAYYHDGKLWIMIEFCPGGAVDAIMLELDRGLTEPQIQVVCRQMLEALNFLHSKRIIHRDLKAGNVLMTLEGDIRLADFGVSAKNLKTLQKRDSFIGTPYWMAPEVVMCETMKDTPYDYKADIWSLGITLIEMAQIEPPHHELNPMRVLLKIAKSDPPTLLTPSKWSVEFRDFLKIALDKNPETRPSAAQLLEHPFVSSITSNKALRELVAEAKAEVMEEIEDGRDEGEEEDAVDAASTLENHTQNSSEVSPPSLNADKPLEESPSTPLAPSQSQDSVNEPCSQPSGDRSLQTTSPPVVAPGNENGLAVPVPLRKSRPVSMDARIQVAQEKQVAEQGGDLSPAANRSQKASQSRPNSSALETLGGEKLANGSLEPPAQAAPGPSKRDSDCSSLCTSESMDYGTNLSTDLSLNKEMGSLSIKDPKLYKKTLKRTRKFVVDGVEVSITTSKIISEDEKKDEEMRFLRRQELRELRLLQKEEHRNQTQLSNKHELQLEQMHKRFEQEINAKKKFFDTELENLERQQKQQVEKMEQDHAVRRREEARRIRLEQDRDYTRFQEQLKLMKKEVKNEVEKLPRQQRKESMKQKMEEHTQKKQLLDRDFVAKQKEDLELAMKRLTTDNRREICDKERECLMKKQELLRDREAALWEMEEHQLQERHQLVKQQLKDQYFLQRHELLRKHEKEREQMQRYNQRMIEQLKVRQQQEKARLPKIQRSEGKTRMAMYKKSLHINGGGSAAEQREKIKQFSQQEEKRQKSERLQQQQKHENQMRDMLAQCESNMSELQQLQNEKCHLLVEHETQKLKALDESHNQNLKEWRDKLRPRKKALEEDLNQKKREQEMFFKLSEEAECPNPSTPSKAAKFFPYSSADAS
Chain of HIPK3 (Q9H422 whole entry): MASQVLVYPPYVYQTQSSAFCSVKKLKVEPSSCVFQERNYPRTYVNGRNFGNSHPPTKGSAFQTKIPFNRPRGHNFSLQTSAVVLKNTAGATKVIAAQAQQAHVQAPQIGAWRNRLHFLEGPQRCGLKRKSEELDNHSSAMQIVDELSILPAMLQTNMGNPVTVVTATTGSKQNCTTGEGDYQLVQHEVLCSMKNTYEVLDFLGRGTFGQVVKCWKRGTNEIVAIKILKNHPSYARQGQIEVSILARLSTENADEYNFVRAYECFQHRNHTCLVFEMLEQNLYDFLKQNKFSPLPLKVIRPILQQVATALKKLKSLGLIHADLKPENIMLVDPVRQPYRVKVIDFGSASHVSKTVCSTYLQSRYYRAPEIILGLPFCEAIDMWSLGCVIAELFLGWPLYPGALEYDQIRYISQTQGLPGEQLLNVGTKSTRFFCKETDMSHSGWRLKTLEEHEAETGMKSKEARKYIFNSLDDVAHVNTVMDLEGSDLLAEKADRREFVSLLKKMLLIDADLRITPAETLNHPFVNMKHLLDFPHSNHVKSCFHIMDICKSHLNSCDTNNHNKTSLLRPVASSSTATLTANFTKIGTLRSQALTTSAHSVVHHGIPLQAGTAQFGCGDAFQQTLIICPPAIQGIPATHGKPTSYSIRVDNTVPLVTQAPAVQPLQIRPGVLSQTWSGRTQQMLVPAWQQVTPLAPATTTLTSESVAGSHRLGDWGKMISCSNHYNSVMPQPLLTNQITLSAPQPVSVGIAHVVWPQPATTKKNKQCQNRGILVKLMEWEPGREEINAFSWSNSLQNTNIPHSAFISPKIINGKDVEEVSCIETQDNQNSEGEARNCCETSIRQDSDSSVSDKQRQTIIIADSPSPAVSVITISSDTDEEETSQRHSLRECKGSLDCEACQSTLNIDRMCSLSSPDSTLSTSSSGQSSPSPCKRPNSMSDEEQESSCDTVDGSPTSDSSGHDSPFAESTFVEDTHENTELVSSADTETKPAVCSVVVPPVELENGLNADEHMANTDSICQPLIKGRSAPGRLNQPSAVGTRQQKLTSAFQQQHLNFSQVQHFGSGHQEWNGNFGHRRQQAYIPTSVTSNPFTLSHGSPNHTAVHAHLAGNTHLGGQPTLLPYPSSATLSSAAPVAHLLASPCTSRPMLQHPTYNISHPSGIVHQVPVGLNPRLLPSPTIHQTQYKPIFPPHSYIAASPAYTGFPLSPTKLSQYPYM
Chain of AKT3 (Q9Y243 whole entry): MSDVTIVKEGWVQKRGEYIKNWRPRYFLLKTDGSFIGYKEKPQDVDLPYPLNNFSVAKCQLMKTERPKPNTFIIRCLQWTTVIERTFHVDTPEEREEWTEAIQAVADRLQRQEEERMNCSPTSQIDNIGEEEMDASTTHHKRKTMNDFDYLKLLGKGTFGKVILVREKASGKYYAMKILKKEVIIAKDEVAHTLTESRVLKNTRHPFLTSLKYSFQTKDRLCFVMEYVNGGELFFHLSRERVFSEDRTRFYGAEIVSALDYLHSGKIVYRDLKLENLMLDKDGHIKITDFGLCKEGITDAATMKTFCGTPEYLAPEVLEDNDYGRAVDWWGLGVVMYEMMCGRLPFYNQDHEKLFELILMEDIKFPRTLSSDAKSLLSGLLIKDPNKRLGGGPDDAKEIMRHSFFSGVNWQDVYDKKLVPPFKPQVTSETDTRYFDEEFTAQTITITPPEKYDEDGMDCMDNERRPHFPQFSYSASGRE

NC(N)=NCCC[C@H](NCN1CCN(C(=O)c2cc(Cc3n[nH]c(=O)c4ccccc34)ccc2F)CC1)C(=O)O [PPNR-4]
> 10 µM: all assays above
